Counter-ions that a name gives are not always drawn.

One test has as its system Acinetobacter baumannii ATCC 17978. Nature of the test: Antimicrobial susceptibility testing: 90% growth inhibitory concentration (IC90) determination. The format is cell-based. The conditions noted are these: 90% growth inhibitory concentration; Acinetobacter baumannii ATCC17978; Iso-Sensitest broth, OD 600 nm over 16h; read-out: ATCC17978 IC90. An outline of the steps: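 Compounds serially twofold diluted (e.g. 50 to 0.097 μM final) in Iso-Sensitest broth, inoculated at ~5×10^(5) CFU/ml, incubated at 35±2° C. OD600 read every 20 minutes over 16h. IC90 taken as concentration inhibiting 90% of growth during logarithmic phase.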
As for `CCc1cc(Nc2nccn3c(-c4ccc(Cl)c(F)c4F)cnc23)ccc1C(=O)N(C)CCCN` [Example 282, N-(3-aminopropyl)-4-[[3-(4-chloro-2,3-difluorophenyl)imidazo[1,2-a]pyrazin-8-yl]amino]-2-ethyl-N-methylbenzamide; hydrochloride], the IC90 was determined as 1400 nM. For the compound `CCc1cc(Nc2nccn3c(-c4ccc(Cl)cc4F)cnc23)ccc1C(=O)NCCCN` [Example 283, N-(3-aminopropyl)-4-[[3-(4-chloro-2-fluorophenyl)imidazo[1,2-a]pyrazin-8-yl]amino]-2-ethylbenzamide; hydrochloride], the IC90 stood at 2000 nM.

The test is the same for the next values; noted with them: Acinetobacter baumannii, ATCC17978, 16 h, 90% growth inhibitory concentration; Acinetobacter baumannii ATCC17978; Iso-Sensitest broth, OD 600 nm over 16h; read-out: ATCC17978 IC90.
`CCc1cc(Nc2nccn3c(-c4ccc(Cl)c(F)c4F)cnc23)ccc1C(=O)NCC1CCNC1` (stereo not shown) [Example 277, 4-[[3-(4-chloro-2,3-difluorophenyl)imidazo[1,2-a]pyrazin-8-yl]amino]-2-ethyl-N-(pyrrolidin-3-ylmethyl)benzamide;hydrochlo-ride]: the IC90 was 700 nM. On the same count and under the same terms, next, `Cc1cc(Nc2nccn3c(-c4ccc(OC(F)F)cc4)cnc23)ccc1C(=O)NCCN1C[C@@H](C)O[C@@H](C)C1` [Example 278, 4-[[3-[4-(difluoromethoxy)phenyl]im-idazo[1,2-a]pyrazin-8-yl]amino]-2-methyl-N-[2-[rac-(2R,6S)-2,6-dimethylmorpholin-4-yl]ethyl]benzamide]: 1400 nM; `Cc1cc(Nc2nccn3c(-c4ccc(OC(F)F)cc4)cnc23)ccc1C(=O)N(C)CC(=O)N1CCOCC1` [Example 279, 4-[[3-[4-(difluoromethoxy)phenyl]im-idazo[1,2-a]pyrazin-8-yl]amino]-N,2-dimethyl-N-(2-morpholin-4-yl-2-oxoethyl)benzamide]: 3400 nM. On the same count and under the same terms, next, `CCc1cc(Nc2nccn3c(-c4ccc(OC)cc4F)cnc23)ccc1C(=O)NCCCN` [Example 280, N-(3-aminopropyl)-2-ethyl-4-[[3-(2-fluoro-4-methoxyphenyl)imidazo[1,2-a]pyrazin-8-yl]amino]benzamide;hydrochlo-ride]: 880 nM; `COc1ccc(-c2cnc3c(Nc4ccc(C(=O)NCCC5(O)CCNCC5)c(C)c4)nccn23)cc1F` [Example 281, 4-[[3-(3-fluoro-4-methoxyphenyl)imidazo[1,2-a]pyrazin-8-yl]amino]-N-[2-(4-hydroxypiperidin-4-yl)ethyl]-2-methylbenzamide;2,2,2-trifluoroacetic acid]: 930 nM. The same measure, in the same setting: next, `Cc1cc(Nc2nccn3c(-c4ccc(OC(F)F)cc4)cnc23)ccc1C(=O)N(CCN1CCNCC1)C1CC1` [Example 284, N-cyclopropyl-4-[[3-[4-(difluoromethoxy)phenyl]im-idazo[1,2-a]pyrazin-8-yl]amino]-2-methyl-N-(2-piperazin-1-ylethyl)benzamide;hydrochlo-ride]: 2100 nM; `COc1ccc(-c2cnc3c(Nc4ccc(C(=O)NCC5(O)CCNCC5)c(C)c4)nccn23)cc1F` [Example 285, 4-[[3-(3-fluoro-4-methoxyphenyl)imidazo[1,2-a]pyrazin-8-yl]amino]-N-[(4-hydroxypiperidin-4-yl)methyl]-2-methylbenzamide;2,2,2-trifluoroacetic acid]: 2600 nM. Regarding `COc1ccc(-c2cnc3c(Nc4ccc(C(=O)NCC5(O)CCNC5)c(C)c4)nccn23)cc1F` (stereo not shown) [Example 286, 4-[[3-(3-fluoro-4-methoxyphenyl)imidazo[1,2-a]pyrazin-8-yl]amino]-N-[(3-hydroxypyrrolidin-3-yl)methyl]-2-methylbenzamide;2,2,2-trifluoroacetic acid], the IC90 was determined as 2700 nM. Same read-out and setting: next, `CCc1cc(Nc2nccn3c(-c4ccc(OCC#CCN)c(F)c4F)cnc23)ccc1C(=O)NCCCN` [Example 287, 4-[[3-[4-(4-aminobut-2-ynoxy)-2,3-difluorophenyl]imidazo[1,2-a]pyrazin-8-yl]amino]-N-(3-aminopropyl)-2-ethylbenzamide]: 2900 nM; `COc1ccc(-c2cnc3c(Nc4ccc(C(=O)NC[C@@H](O)[C@@H](O)[C@H](O)[C@H](O)CO)c(C)c4)nccn23)cc1F` [Example 288, 4-[[3-(3-fluoro-4-methoxyphenyl)imidazo[1,2-a]pyrazin-8-yl]amino]-2-methyl-N-[(2R,3R,4R,5R)-2,3,4,5,6-pentahydroxyhexyl]benzamide]: 3000 nM. The same measure, in the same setting: next, `CCc1cc(Nc2nccn3c(-c4ccc(O)c(F)c4F)cnc23)ccc1C(=O)NCCCN` [Example 289, N-(3-aminopropyl)-4-[[3-(2,3-difluoro-4-hydroxyphenyl)imidazo[1,2-a]pyrazin-8-yl]amino]-2-ethylbenzamide;hydrochloride]: 4600 nM; `CCc1cc(Nc2nccn3c(-c4ccc(OC)c(F)c4F)cnc23)ccc1C(=O)NCCCn1ccnc1` [Example 290, 4-[[3-(2,3-difluoro-4-methoxyphenyl)imidazo[1,2-a]pyrazin-8-yl]amino]-2-ethyl-N-(3-imidazol-1-ylpropyl)benzamide]: 50 nM.

Turning to `CCc1cc(Nc2nccn3c(-c4ccc(OC)c(F)c4F)cnc23)ccc1C(=O)NCC1COC1` [Example 291, 4-[[3-(2,3-difluoro-4-methoxyphenyl)imidazo[1,2-a]pyrazin-8-yl]amino]-2-ethyl-N-(oxetan-3-ylmethyl)benzamide], the 90% effect concentration (IC90) was determined as 90 nM. In the case of `COc1ccc(-c2cnc3c(Nc4ccc(C(=O)NCC5CCN(C(=N)N)CC5)c(C)c4)nccn23)c(F)c1F` [Example 292, N-[(1-carbamimidoylpiperidin-4-yl)methyl]-4-[[3-(2,3-difluoro-4-methoxyphenyl)imidazo[1,2-a]pyrazin-8-yl]amino]-2-methylbenzamide], the IC90 turned out to be 110 nM. Same read-out and setting: as for `CCc1cc(Nc2nccn3c(-c4ccc(OC(F)F)c(F)c4F)cnc23)ccc1C(=O)NCCCO` [Example 293, 4-[[3-[4-(difluoromethoxy)-2,3-difluorophenyl]imidazo[1,2-a]pyrazin-8-yl]amino]-2-ethyl-N-(3-hydroxypropyl)benzamide], the figure is 120 nM; as for `CCc1cc(Nc2nccn3c(-c4ccc(OC(F)F)c(F)c4F)cnc23)ccc1C(=O)NCCNC(=O)CN(C)C` [Example 294, 4-[[3-[4-(difluoromethoxy)-2,3-difluorophenyl]imidazo[1,2-a]pyrazin-8-yl]amino]-N-[2-[[2-(dimethylamino)acetyl]amino]ethyl]-2-ethylbenzamide], 140 nM.

Take `CCc1cc(Nc2nccn3c(-c4ccc(OC(F)F)c(F)c4F)cnc23)ccc1C(=O)NCCc1nnc(C)[nH]1` [Example 295, 4-[[3-[4-(difluoromethoxy)-2,3-difluorophenyl]imidazo[1,2-a]pyrazin-8-yl]amino]-2-ethyl-N-[2-(5-methyl-4H-1,2,4-triazol-3-yl)ethyl]benzamide]: the IC90 worked out at 140 nM. The same measure, in the same setting: next, `COc1ccc(-c2cnc3c(Nc4ccc(C(=O)NCC5CCN(C(=N)N)CC5)c(Cl)c4)nccn23)cc1F` [Example 296, N-[(1-carbamimidoylpiperidin-4-yl)methyl]-2-chloro-4-[[3-(3-fluoro-4-methoxyphenyl)imidazo[1,2-a]pyrazin-8-yl]amino]benzamide]: 150 nM.

As for `CCc1cc(Nc2nccn3c(-c4ccc(OC)c(F)c4F)cnc23)ccc1C(=O)NCC1CN(C)C1` [Example 297, 4-[[3-(2,3-difluoro-4-methoxyphenyl)imidazo[1,2-a]pyrazin-8-yl]amino]-2-ethyl-N-[(1-methylazetidin-3-yl)methyl]benzamide], the IC90 turned out to be 150 nM.

With `CCc1cc(Nc2nccn3c(-c4ccc(OC)c(F)c4F)cnc23)ccc1C(=O)NCC1CCN(C(=N)N)CC1` [Example 298, N-[(1-carbamimidoylpiperidin-4-yl)methyl]-4-[[3-(2,3-difluoro-4-methoxyphenyl)imidazo[1,2-a]pyrazin-8-yl]amino]-2-ethylbenzamide], the 90% effect concentration (IC90) came out at 170 nM. The same measure, in the same setting: as for `CCc1cc(Nc2nccn3c(-c4ccc(OCC#N)c(F)c4F)cnc23)ccc1C(=O)NCCCN` [Example 299, N-(3-aminopropyl)-4-[[3-[4-(cyanomethoxy)-2,3-difluorophenyl]imidazo[1,2-a]pyrazin-8-yl]amino]-2-ethylbenzamide;2,2,2-trifluoroacetic acid], the figure is 180 nM; as for `CNCCN1CCc2cc(Nc3nccn4c(-c5ccc(OC)c(F)c5F)cnc34)ccc2C1=O` [Example 300, 6-[[3-(2,3-difluoro-4-methoxyphenyl)imidazo[1,2-a]pyrazin-8-yl]amino]-2-[2-(methylamino)ethyl]-3,4-dihydroisoquinolin-1-one;hydrochloride], 240 nM; as for `CCc1cc(Nc2nccn3c(-c4ccc(OC)c(F)c4F)cnc23)ccc1C(=O)NCCC1CCN(CCC(=O)O)CC1` [Example 301, 3-[4-[2-[[4-[[3-(2,3-difluoro-4-methoxyphenyl)imidazo[1,2-a]pyrazin-8-yl]amino]-2-ethylbenzoyl]amino]ethyl]piperidin-1-yl]propanoic acid], 270 nM.

Take `COc1ccc(-c2cnc3c(Nc4ccc5c(c4)CCN(CCO)C5=O)nccn23)c(F)c1F` [Example 302, 6-[[3-(2,3-difluoro-4-methoxyphenyl)imidazo[1,2-a]pyrazin-8-yl]amino]-2-(2-hydroxyethyl)-3,4-dihydroisoquinolin-1-one]: the IC90 is 300 nM. On the same count and under the same terms, next, `CCc1cc(Nc2nccn3c(-c4ccc(OC)c(F)c4F)cnc23)ccc1C(=O)N[C@H](C)CCN` [Example 303, N-[(2R)-4-aminobutan-2-yl]-4-[[3-(2,3-difluoro-4-methoxyphenyl)imidazo[1,2-a]pyrazin-8-yl]amino]-2-ethylbenzamide;hydrochloride]: 360 nM; `CCc1cc(Nc2nccn3c(-c4ccc(OC)c(F)c4F)cnc23)ccc1C(=O)NCC(O)CN1CCCC1` (stereo not shown) [Example 304, 4-[[3-(2,3-difluoro-4-methoxyphenyl)imidazo[1,2-a]pyrazin-8-yl]amino]-2-ethyl-N-(2-hydroxy-3-pyrrolidin-1-ylpropyl)benzamide]: 360 nM.

The values above are taken from patent US20230012368A1 (Hoffmann-La Roche Inc., priority 2018, published 2023).
